Patent US20210282443A1, “COMPOUNDS, COMPOSITIONS, AND METHODS FOR MODULATING SWEET TASTE” (Chromocell Corporation, priority 2016, published 2021)

Tested on: perception of sweet taste of High Fructose Corn Syrup (HFCS)
Test: 2AFC sip and spit sensory test, sweet taste of HFCS in Lemon Lime beverage
Type: in vivo, humans
Conditions: Lemon Lime pH 3.1
Procedure: The effect of the test compounds and combinations of test compounds on the perception of the sweet taste of a flavored beverage (referred to as Lemon Lime henceforth) of sweetener in humans was evaluated using a two-alternative forced choice “sip and spit” method (2AFC). The Lemon Lime solutions were prepared by adding sucrose equivalent (SE) quantities of high fructose corn syrup (HFCS) (by weight), to water to achieve the desired concentration. The lemon lime pH is 3.1. Compounds were first prepared as a 500-fold concentrated stock solution in 100% ethanol. These concentrated stocks were then added to the aqueous sweetener solutions to result in a final ethanol concentration of 0.2%. The control (positive and negative) samples were also normalized to 0.2% ethanol. This level of ethanol was not seen to contribute any perceived sweetness. The 2AFC test used for compound evaluation was a double blinded and randomized test where taste panelists (n≥15) evaluate a pair of sweetener solutions at a time—one sample contains aqueous sweetener solution plus compound (i.e. test) while the other contains aqueous sweetener solution at higher concentration without compound (i.e. positive control). Each test sample was compared against a positive control. For example, if the test sample contained 1× sweetener concentration with compound (e.g. 5brix HFCS with compound), the positive control sample contained a 1.1× sweetener concentration (e.g. 5.5brix HFCS without compound). In this manner, compounds were not assessed simply for an increase in perceived sweetness, but a significant increase in perceived sweetness above the positive control. […] Data were analyzed using binomial probabilities. Approximate levels of sweetness enhancement in column 5 of Table 1 were calculated as follows: Approximate levels of sweetness enhancement=Sweetener concentration of positive control surpassed by the test sample, divided by sweetener concentration for compound-containing sample (e.g. 1.5×=7.5brix HIFCS/5brix HIFCS).

## COc1cc(C2CC(=O)Oc3cc(C)cc(O)c32)ccc1O (racemic) [Compound 1, 5-hydroxy-4-(4-hydroxy-3-methoxyphenyl)-7-methylchroman-2-one]
25 ppm compound, 10 brix HFCS / 7.14 brix HFCS
  Fold increase in perceived sweetness: >1.4×
Test sample 7.14 brix HFCS vs positive control 10 brix HFCS, panelists n≥15
  Compund concentration with positive 2AFC results: 25 ppm
Test sample 7.14 brix HFCS with 25 ppm compound
  Sweetener Concentration of positive control surpassed by test sample: 10 brix HFCS
